Key:
ECHOR (seed) = assay: Assay for herbicidal activity, paddy pots: ECHOR; type: in vivo, Echinochloa crus-galli var. oryzicola; conditions: for ECHOR (seed) herbicidal activity, visual percentage grading: three weeks after application, 0 untreated control, 100 complete kill
Source text: (§1) To evaluate herbicidal activity against the paddy weeds in the paddy rice (ORYSA: Oryza sativa L.), the herbicidal activity of the compounds of the invention was compared to that of the compound No.109 (compound A) disclosed in U.S. Pat. […] The paddy weeds tested were ECHOR (Echinochloa crus-galli var. oryzicola), SCPJU (Scirpus juncoides ROXB), MOOVA (Monochoria vaginalis […] (Cyperus serotinus ROTTB), and SAGPY (Sagittaria pygmaea MTQ). The vessels employed were plastic pots having an area of 140 cm^2 and filled with a sandy loam soil containing 1.2% organic matter (pH 6).

SCPJU (seed) = assay: Assay for herbicidal activity, paddy pots: SCPJU; type: in vivo, Scirpus juncoides ROXB; conditions: three weeks after application, 0 untreated control, 100 complete kill
Source text: as §1

MOOVA (seed) = assay: Assay for herbicidal activity, paddy pots: MOOVA; type: in vivo, Monochoria vaginalis PRESL; conditions: three weeks after application, 0 untreated control, 100 complete kill
Source text: as §1

CYPSE (tuber) = assay: Assay for herbicidal activity, paddy pots: CYPSE; type: in vivo, Cyperus serotinus ROTTB; conditions: three weeks after application, 0 untreated control, 100 complete kill
Source text: as §1

SAGPY (tuber) = assay: Assay for herbicidal activity, paddy pots: SAGPY; type: in vivo, Sagittaria pygmaea MTQ; conditions: three weeks after application, 0 untreated control, 100 complete kill
Source text: as §1

| SMILES | ECHOR (seed) herbicidal activity, visual percentage grading (ECHOR (seed); 0.016 kg/ha) [%] | ECHOR (seed) herbicidal activity, visual percentage grading (ECHOR (seed); 0.063 kg/ha) [%] | ECHOR (seed) herbicidal activity, visual percentage grading (ECHOR (seed); 0.250 kg/ha) [%] | ECHOR (seed) herbicidal activity, visual percentage grading (ECHOR (seed); 1.000 kg/ha) [%] | ECHOR (seed) herbicidal activity, visual percentage grading (ECHOR (seed); 4.000 kg/ha) [%] | SCPJU (seed) herbicidal activity, visual percentage grading (SCPJU (seed); 0.016 kg/ha) [%] | SCPJU (seed) herbicidal activity, visual percentage grading (SCPJU (seed); 0.063 kg/ha) [%] | SCPJU (seed) herbicidal activity, visual percentage grading (SCPJU (seed); 0.250 kg/ha) [%] | SCPJU (seed) herbicidal activity, visual percentage grading (SCPJU (seed); 1.000 kg/ha) [%] | SCPJU (seed) herbicidal activity, visual percentage grading (SCPJU (seed); 4.000 kg/ha) [%] | MOOVA (seed) herbicidal activity, visual percentage grading (MOOVA (seed); 0.016 kg/ha) [%] | MOOVA (seed) herbicidal activity, visual percentage grading (MOOVA (seed); 0.063 kg/ha) [%] | MOOVA (seed) herbicidal activity, visual percentage grading (MOOVA (seed); 0.250 kg/ha) [%] | MOOVA (seed) herbicidal activity, visual percentage grading (MOOVA (seed); 1.000 kg/ha) [%] | MOOVA (seed) herbicidal activity, visual percentage grading (MOOVA (seed); 4.000 kg/ha) [%] | CYPSE (tuber) herbicidal activity, visual percentage grading (CYPSE (tuber); 0.016 kg/ha) [%] | CYPSE (tuber) herbicidal activity, visual percentage grading (CYPSE (tuber); 0.063 kg/ha) [%] | CYPSE (tuber) herbicidal activity, visual percentage grading (CYPSE (tuber); 0.250 kg/ha) [%] | CYPSE (tuber) herbicidal activity, visual percentage grading (CYPSE (tuber); 1.000 kg/ha) [%] | CYPSE (tuber) herbicidal activity, visual percentage grading (CYPSE (tuber); 4.000 kg/ha) [%] | other results |
| --- | --- | --- | --- | --- | --- | --- | --- | --- | --- | --- | --- | --- | --- | --- | --- | --- | --- | --- | --- | --- | --- |
| Cc1ccc(C2=NOC(C)(COCc3cccc(F)c3)C2)s1 (stereo not drawn) [EXAMPLE 3, 5-(3-fluorobenzyl)oxymethyl-5-methyl-3-(2-methylthiophene-5-yl)-1,2-isoxazoline] | 20 | 55 | 100 | 100 | 100 | 0 | 20 | 40 | 60 | 100 | 20 | 50 | 60 | 80 | 100 | 0 | 40 | 90 | 100 | 100 | SAGPY (tuber) herbicidal activity, visual percentage grading (SAGPY (tuber); 0.016 kg/ha): 0%; SAGPY (tuber) herbicidal activity, visual percentage grading (SAGPY (tuber); 0.063 kg/ha): 0%; SAGPY (tuber) herbicidal activity, visual percentage grading (SAGPY (tuber); 0.250 kg/ha): 0%; SAGPY (tuber) herbicidal activity, visual percentage grading (SAGPY (tuber); 1.000 kg/ha): 50%; SAGPY (tuber) herbicidal activity, visual percentage grading (SAGPY (tuber); 4.000 kg/ha): 40% |
| Cc1ccsc1C1=NOC(C)(COCc2ccccc2)C1 (stereo not drawn) [EXAMPLE 5, 5-benzyloxymethyl-5-methyl-3-(4-methylthiophene-5-yl)-1,2-isoxazoline] | 0 | 30 | 100 | 100 | 100 | 0 | 10 | 30 | 60 | 100 | 0 | 10 | 80 | 90 | 100 | 0 | 0 | 30 | 100 | 100 | SAGPY (tuber) herbicidal activity, visual percentage grading (SAGPY (tuber); 0.016 kg/ha): 0%; SAGPY (tuber) herbicidal activity, visual percentage grading (SAGPY (tuber); 0.063 kg/ha): 0%; SAGPY (tuber) herbicidal activity, visual percentage grading (SAGPY (tuber); 0.250 kg/ha): 20%; SAGPY (tuber) herbicidal activity, visual percentage grading (SAGPY (tuber); 1.000 kg/ha): 50%; SAGPY (tuber) herbicidal activity, visual percentage grading (SAGPY (tuber); 4.000 kg/ha): 70% |
| Cc1cc(C)c(C2=NOC(C)(COCc3ccccc3F)C2)s1 (stereo not drawn) [EXAMPLE 13, 5-(2-fluorobenzyl)oxymethyl-5-methyl-3-(2,4-dimethylthiophene-5-yl)-1,2-isoxazoline] | 50 | 70 | 100 | 100 | 100 | 30 | 30 | 70 | 90 | 100 | 50 | 70 | 80 | 90 | 100 | 0 | 0 | 90 | 100 | 100 | SAGPY (tuber) herbicidal activity, visual percentage grading (SAGPY (tuber); 0.016 kg/ha): 0%; SAGPY (tuber) herbicidal activity, visual percentage grading (SAGPY (tuber); 0.063 kg/ha): 0%; SAGPY (tuber) herbicidal activity, visual percentage grading (SAGPY (tuber); 0.250 kg/ha): 0%; SAGPY (tuber) herbicidal activity, visual percentage grading (SAGPY (tuber); 1.000 kg/ha): 0%; SAGPY (tuber) herbicidal activity, visual percentage grading (SAGPY (tuber); 4.000 kg/ha): 30% |
| Cc1cc(C)c(C2=NOC(C)(COCc3c(F)cccc3F)C2)s1 (stereo not drawn) [EXAMPLE 15, 5-(2,6-difluorobenzyl)oxymethyl-5-methyl-3-(2,4-dimethylthiophene-5-yl)-1,2-isoxazoline] | 40 | 100 | 100 | 100 | 100 | 20 | 50 | 100 | 100 | 100 | 90 | 100 | 100 | 100 | 100 | 0 | 0 | 70 | 100 | 100 | SAGPY (tuber) herbicidal activity, visual percentage grading (SAGPY (tuber); 0.016 kg/ha): 0%; SAGPY (tuber) herbicidal activity, visual percentage grading (SAGPY (tuber); 0.063 kg/ha): 0%; SAGPY (tuber) herbicidal activity, visual percentage grading (SAGPY (tuber); 0.250 kg/ha): 20%; SAGPY (tuber) herbicidal activity, visual percentage grading (SAGPY (tuber); 1.000 kg/ha): 40%; SAGPY (tuber) herbicidal activity, visual percentage grading (SAGPY (tuber); 4.000 kg/ha): 70% |
| CC1(COCc2c(F)cccc2F)CC(c2sccc2Br)=NO1 (stereo not drawn) [EXAMPLE 19, 5-(2,6-difluorobenzyl)oxymethyl-5-methyl-3-(4-bromothiophene-5-yl)-1,2-isoxazoline] | 100 | 100 | 100 | 100 | 100 | 0 | 100 | 100 | 100 | 100 | 20 | 95 | 100 | 100 | 100 | 30 | 90 | 90 | 100 | 100 | herbicidal activity on ECHOR, in words (ECHOR (seed); low dose of 0.016 Kg/ha): completely controls the growth of ECHOR; SAGPY (tuber) herbicidal activity, visual percentage grading (SAGPY (tuber); 0.016 kg/ha): 0%; SAGPY (tuber) herbicidal activity, visual percentage grading (SAGPY (tuber); 0.063 kg/ha): 0%; SAGPY (tuber) herbicidal activity, visual percentage grading (SAGPY (tuber); 0.250 kg/ha): 0%; SAGPY (tuber) herbicidal activity, visual percentage grading (SAGPY (tuber); 1.000 kg/ha): 20%; SAGPY (tuber) herbicidal activity, visual percentage grading (SAGPY (tuber); 4.000 kg/ha): 30% |
